Our source for the IC50 values is patent publication US10821115B2, “Compounds that inhibit Mcl-1 protein” (priority 2017, dated 2020).

Each structure is given as a SMILES string. pIC50: −log10 of the molar value. Where two headings read alike, the source gives them in different places.

Experiment [1] has as its system human multiple myeloma cell line, OPM-2. The experiment in a line: Cell viability assay (OPM-2 10 FBS), CellTiter-Glo. The format is cell-based. In outline: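 Serially diluted test compounds are incubated 16 h with cells (3000/well) in RPMI 1640 supplemented with 10% FBS. Viability is then measured by luminescence and IC50 calculated by 4-parameter logistic fit.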
(In general: ATP-based viability assays read luminescence as a measure of living cells.)

The target of experiment [2] is recombinant human Mcl-1 (residues 171-327) / Bim interaction (Homo sapiens (Human), UniProt Q07820). Briefly: biochemical. Format: binding. Conditions: read-out: Mcl-1 HTRF IC50. On the technique in general: In TR-FRET formats the signal depends on donor and acceptor labels being close together.
recombinant human Mcl-1 (residues 171-327) / Bim interaction, sequence (Q07820 171-327): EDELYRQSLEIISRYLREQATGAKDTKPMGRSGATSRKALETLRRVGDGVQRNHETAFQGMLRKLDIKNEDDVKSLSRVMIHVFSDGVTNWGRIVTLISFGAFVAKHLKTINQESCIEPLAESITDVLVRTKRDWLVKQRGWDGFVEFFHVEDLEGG
Setting [3] is: read-out: OPM-2 10% FBS IC50 IP, OPM-2 cells, 10% FBS, 16 h, CellTiter-Glo.
Setting [4] is: TR-FRET, Mcl-1(171-327) / biotin-Bim (51-76).
The mark [5] stands for this setting: Homo sapiens, OPM-2, 16 h, read-out: OPM-2 10% FBS IC50 IP, OPM-2 cells, 10% FBS, 16 h, CellTiter-Glo.
Setting [6] is: Homo sapiens, OPM-2, 16 h, read-out: OPM-2 10% FBS IC50 IP, OPM-2 cells, 10% FBS, 16 h incubation.
The mark [7] stands for this setting: 0.1 nM Mcl-1(171-327), 0.05 nM biotin-Bim (51-76).

The pIC50 is the IC50 on a negative log10 scale, so that one unit is a factor of ten. Consider `C[C@@H]1[C@@H](C)CCC[C@@](O)(C#CCCN2CCOCC2)[C@@H]2CC[C@H]2CN2C[C@@]3(CCCc4cc(Cl)ccc43)COc3ccc(cc32)C(=O)NS1(=O)=O` [Example 100372, (1S,3′R,6′R,7′S,11S,12R)-6-chloro-7′-hydroxy-11′,12′-dimethyl-7′-(4-(4-morpholinyl)-1-butyn-1-yl)-3,4-dihydro-2H,15′H-spiro[naphthalene-1,22′-[20]oxa[13]thia[1,14]diazatetracyclo [14.7.2.0~3,6~.0~19,24~]pentacosa[16,18,24]trien]-15′-one 13′,13′-dioxide], for which the figures for the negative logarithm of the IC50 (pIC50) in experiment [1] (setting [3]) and in experiment [2] (setting [4]) were 6.08 and 9.78, respectively.

For the molecule `C[C@@H]1[C@@H](C)C/C=C/[C@](C)(O)[C@@H]2CC[C@H]2CN2C[C@@]3(CCCc4cc(Cl)ccc43)COc3ccc(nc32)C(=O)NS1(=O)=O` (single isomer, unassigned) [Example 100600], the results for the pIC50 in experiment [1] (setting [5]) and in experiment [2] (setting [4]) were 6.28 and 9.35, respectively.

In the case of `CO[C@@]1(CN2CCN(C(C)=O)CC2)/C=C/C[C@H](C)[C@@H](C)S(=O)(=O)NC(=O)c2ccc3c(c2)N(C[C@@H]2CC[C@H]21)C[C@@]1(CCCc2cc(Cl)ccc21)CO3` [Example 249, (1S,3′R,6′R,7′S,8′E,11′S,12′R)-7′-((4-acetyl-1-piperazinyl)methyl)-6-chloro-7′-methoxy-11′,12′-dimethyl-3,4-dihydro-2H,15′H-spiro[naphthalene-1,22′-[20]oxa[13]thia[1,14]diazatetracyclo [14.7.2.0~3,6~.0~19,24~]pentacosa[8,16,18,24]tetraen]-15′-one 13′,13′-dioxide], the pIC50 in experiment [1] (setting [6]) was 6.94; in experiment [2] (setting [7]), 10.20.

As to `CO[C@@]1(C#CCN2CCN3CCOC[C@@H]3C2)/C=C/C[C@H](C)[C@@H](C)S(=O)(=O)NC(=O)c2ccc3c(c2)N(C[C@@H]2CC[C@H]21)C[C@@]1(CCCc2cc(Cl)ccc21)CO3` [Example 100518, (1S,3′R,6′R,7′S,8′E,11′S,12′R)-6-chloro-7′-(3-((9aS)-hexahydropyrazino[2,1-c][1,4]oxazin-8(1H)-yl)-1-propyn-1-yl)-7′-methoxy-11′,12′-dimethyl-3,4-dihydro-2H,15′H-spiro[naphthalene-1,22′-[20]oxa[13]thia[1,14]diazatetracyclo [14.7.2.0~3,6~.0~19,24~]pentacosa[8,16,18,24]tetraen]-15′-one 13′,13′-dioxide], the negative logarithm of the IC50 (pIC50) was 6.18 in experiment [1] (setting [5]) and 9.37 in experiment [2] (setting [4]).

As to `CCOC(=O)C(F)(F)[C@]1(O)/C=C/C[C@H](C)[C@@H](C)S(=O)(=O)NC(=O)c2ccc3c(c2)N(C[C@@H]2CC[C@H]21)C[C@@]1(CCCc2cc(Cl)ccc21)CO3` [Example 100416, ethyl ((1S,3′R,6′R,7′S,8′E,11′S,12′R)-6-chloro-7′-hydroxy-11′,12′-dimethyl-13′,13′-dioxido-15′-oxo-3,4-dihydro-2H-spiro[naphthalene-1,22′-[20]oxa[13]thia[1,14]diazatetracyclo [14.7.2.0~3,6~.0~19,24~]pentacosa[8,16,18,24]tetraen]-7′-yl)(difluoro)acetate], the pIC50 in experiment [1] (setting [5]) was 7.07; in experiment [2] (setting [4]) it was 10.04.

Turning to `CO[C@@]1(c2nccn2C)CCC[C@H](C)[C@@H](C)S(=O)(=O)NC(=O)c2ccc3c(c2)N(C[C@@H]2CC[C@H]21)C[C@@]1(CCCc2cc(Cl)ccc21)CO3` [Example 100230, (1S,3′R,6′R,7′S,11′S,12′R)-6-chloro-7′-methoxy-11′,12′-dimethyl-7′-(1-methyl-1H-imidazol-2-yl)-3,4-dihydro-2H,15′H-spiro[naphthalene-1,22′-[20]oxa[13]thia[1,14]diazatetracyclo [14.7.2.0~3,6~.0~19,24~]pentacosa[16,18,24]trien]-15′-one 13′,13′-dioxide], the negative-log IC50 (pIC50) was 6.26 in experiment [1] (setting [5]) and 9.33 in experiment [2] (setting [4]).

As to `CCN(CC)C(=O)C[C@@]1(O)/C=C/C[C@H](C)[C@@H](C)S(=O)(=O)NC(=O)c2ccc3c(c2)N(C[C@@H]2CC[C@H]21)C[C@@]1(CCCc2cc(Cl)ccc21)CO3` (single isomer, unassigned) [Example 100084], the pIC50 in experiment [1] (setting [5]) was 5.83; in experiment [2] (setting [4]) it was 9.13.

As to `C[C@@H]1[C@@H](C)C/C=C/[C@@](O)(c2cnc(Cl)n2C)[C@@H]2CC[C@H]2CN2C[C@@]3(CCCc4cc(Cl)ccc43)COc3ccc(cc32)C(=O)NS1(=O)=O` (single isomer, unassigned) [Example 100551], the pIC50 in experiment [1] (setting [5]) is 6.85; in experiment [2] (setting [4]) it was 9.76.

Take `CO[C@]1(CCOS(C)(=O)=O)/C=C/C[C@H](C)[C@@H](C)S(=O)(=O)NC(=O)c2ccc3c(c2)N(C[C@@H]2CC[C@H]21)C[C@@]1(CCCc2cc(Cl)ccc21)CO3` [Example 100351, 2-((1S,3′R,6′R,7′R,8′E,11′S,12′R)-6-chloro-7′-methoxy-11′,12′-dimethyl-13′,13′-dioxido-15′-oxo-3,4-dihydro-2H-spiro[naphthalene-1,22′-[20]oxa[13]thia[1,14]diazatetracyclo [14.7.2.0~3,6~.0~19,24~]pentacosa[8,16,18,24]tetraen]-7′-yl)ethyl methanesulfonate]: the pIC50 in experiment [1] (setting [5]) is 5.69; in experiment [2] (setting [4]), 9.94.

Take `CCN1CCN(C[C@@]2(OC)/C=C/C[C@H](C)[C@@H](C)S(=O)(=O)NC(=O)c3ccc4c(c3)N(C[C@@H]3CC[C@H]32)C[C@@]2(CCCc3cc(Cl)ccc32)CO4)CC1(C)C` [Example 330, (1S,3′R,6′R,7′R,8′E,11′S,12′R)-6-chloro-7′-((4-ethyl-3,3-dimethyl-1-piperazinyl)methyl)-7′-methoxy-11′,12′-dimethyl-3,4-dihydro-2H,15′H-spiro[naphthalene-1,22′-[20]oxa[13]thia[1,14]diazatetracyclo [14.7.2.0~3,6~.0~19,24~]pentacosa[8,16,18,24]tetraen]-15′-one 13′,13′-dioxide]: the pIC50 in experiment [1] (setting [6]) was 6.56; in experiment [2] (setting [7]), 9.37.

For `C[C@@H]1[C@@H](C)CCC[C@](O)(c2ncccn2)[C@@H]2CC[C@H]2CN2C[C@@]3(CCCc4cc(Cl)ccc43)COc3ccc(cc32)C(=O)NS1(=O)=O` [Example 100279, (1S,3′R,6′R,7′R,11′S,12′R)-6-chloro-7′-hydroxy-11′,12′-dimethyl-7′-(2-pyrimidinyl)-3,4-dihydro-2H,15′H-spiro[naphthalene-1,22′-[20]oxa[13]thia[1,14]diazatetracyclo [14.7.2.0~3,6~.0~19,24~]pentacosa[16,18,24]trien]-15′-one 13′,13′-dioxide], the pIC50 in experiment [1] (setting [3]) is 5.49; in experiment [2], 9.11.

Regarding `CO[C@@]1(CN2CCC3(CCOC3)CC2)/C=C/C[C@H](C)[C@@H](C)S(=O)(=O)NC(=O)c2ccc3c(c2)N(C[C@@H]2CC[C@H]21)C[C@@]1(CCCc2cc(Cl)ccc21)CO3` [Example 265, (1S,3′R,6′R,7′S,8′E,11′S,12′R)-6-chloro-7′-methoxy-11′,12′-dimethyl-7′-(2-oxa-8-azaspiro[4.5]dec-8-ylmethyl)-3,4-dihydro-2H,15′H-spiro[naphthalene-1,22′-[20]oxa[13]thia[1,14]diazatetracyclo [14.7.2.0~3,6~.0~19,24~]pentacosa[8,16,18,24]tetraen]-15′-one 13′,13′-dioxide], the pIC50 in experiment [1] (setting [6]) is 6.24; in experiment [2] (setting [7]) it was 9.37.
